The subject of experiment [1] is rats challenged by an arrhythmogenic combination of benzene vapors and adrenaline. The experiment in a line: Anti-arrhythmic activity in anesthetized rats (benzene/adrenaline challenge: VPB and tachycardia). In kind it is in vivo, rat. To be noted: for Heart rate (beats/minute) / Inhibition of tachycardia / Number of VPB / Inhibition of VPB: isolated enantiomer compared to respective racemate; for Inhibition of VPB: 4 mg/kg i.v. then 12 mg/kg/h for 2 hours; for Anti-VPB activity at the end of the washout period: time 180 min; for Protection against adrenaline-induced tachycardia (heart rate), potency and duration: administered from time 0 to time 120 minutes; for Inhibition of formation of ventricular premature beats during drug administration: whole period of drug administration (time 0 to 120 min), 4 mg/kg i.v. then 12 mg/kg/h. How it is done: (§1) Anti-Arrhythmic Activity in Anesthetized Rats
(§2) Male Sprague-Dawley rats with body weights of 410±30 g (Harlan Sprague Dawley Inc., Indianapolis, Ind.), were anesthetized with sodium pentobarbital (50 mg/kg i.p.—Butler Co., Columbus, Ohio). The skin from the neck area was removed and the jugular veins on both sides were cleared of connective tissue. Both jugular veins and the left carotid artery were isolated, and the latter tied up cranially with a surgical silk (ETHICON 4-0, Ethicon Inc., Australia). A plastic catheter ([…] 19ga, Vecton Dickinson, Sandy, Utah), filled with a solution containing 10% sodium heparin (Elkins-Sinn Inc., Cherry Hill, N.J.) in normal saline (100 U/ml sodium heparin), was introduced into the artery and fixed with surgical silk.
(§3) The catheter was connected to a pressure transducer (OHMEDA P23-XL, Ohmeda Medical Devices Division Inc., Madison, Wis.), filled with the same heparinized 0.9% NaCl solution, to register beat-to-beat arterial pressure. Needle electrodes were inserted s.c., and together with the pressure transducer, were joined to a GOULD TA 2000 recorder. Leads II, aVF and intraarterial blood pressure were monitored simultaneously throughout the experiments and recorded at certain intervals at 50 and 200 mm/sec paper speed.
(§4) The surgery was completed with an incision on the trachea where a short plastic tubing was placed and the animal was connected to a rodent-model ventilator (HARVARD Model 683, Harvard Apparatus, Inc., Holliston, Mass.). The animals were ventilated in a controlled way, depending on their spontaneous breathing frequency (55-75/min).
(§5) Drug administrations were carried out through i.v. catheters (TERUMO 24 GA*¾″, Terumo Medical Corp., Elkton, Md.) inserted into both jugular veins. The left side was used for drug infusions by means of a syringe pump (SAGE INSTRUMENTS, Model 341B, Orion Res. Inc., Boston, Mass.), and the right side was used for adrenaline injections. The experiments were started after at least 15 minutes of stabilization. Benzene/adrenaline challenges were performed as follows: the respirator inlet was connected to a 50-ml bubbler half-full with benzene (Fisher Scientific, Fair Lawn, N.J.) so that the inspired air was saturated with benzene vapor. The animal was ventilated with benzene vapor for two minutes. The tidal volume was typically 1 ml/100 g of animal. During the last 30 seconds of benzene ventilation, 10 μg/kg adrenaline solution (in 0.9% NaCl) was injected into the right jugular vein. […] These arrhythmias could be elicited repeatedly. After three control VTs (at −30, −20 and −10 minutes), the test compounds were injected slowly during 30 seconds at a dose of 4 mg/kg i.v., immediately followed by a slow infusion of 12 mg/kg/h for 2 hours. The flow rate during the infusion period was 1 ml/h.
(§6) There were 5 rats per test compound and each animal served as its own control. The ability of the different drugs to suppress arrhythmias was tested against repeated benzene/adrenaline challenges at 5, 15, 30, 45, 60, 90, 120 (end of drug infusion), 135, 150, 165 and 180 minutes after the i.v. bolus injection. The amplitudes of the systolic arterial pressure and diastolic arterial pressure […] with the help of a pressure-amplitude calibration curve. Heart rate, number of ventricular complexes during the occurrence of VTs and VPBs, and certain ECG parameters (PR, QRS, QT durations and RR cycle lengths in msec) were also recorded and measured manually. At each time-point, 3-5 cycles were measured and the average values were entered into EXCEL Windows 97. The average and standard deviation for the five experimental animals per compound were calculated.

A further experiment deals with anesthetized rats. Briefly: EKG parameters (QT, QRS, PR) in anesthetized rats. Type of experiment: in vivo, rat. The following applies: for PR interval / QRS interval / QT interval: isolated enantiomer compared to respective racemate. As for the experimental part: as §1, §2, §3, §4, §5, §6

This is an account of results in patent US6818782B2, “Enantiomeric compounds for treatment of cardiac arrhythmias and methods of use” (ARYX Therapeutics, priority 1999, dated 2004).

Take `CCN(CC)CCOc1c(I)cc(C(=O)c2c(CC(=O)O[C@@H](C)C(C)C)oc3ccccc23)cc1I` [Compound S-2055, (S)-(3-Methyl)-2butyl2-[3-(3,5-diiodo-4-(2-diethylaminoethyloxy)benzoyl)]benzofuraneacetate]: the “Time at which anti-VPB activity is lost” value in experiment [1] (infusion time 0 to 120 min) was approximately 40 min. For the same compound, in experiment [1] (anesthetized rats), the “Heart rate (beats/minute)” value is listed as “lower”, the Inhibition of tachycardia result is on record as “longer”, the “Number of VPB” value is recorded as “lower” and the “Inhibition of VPB” value is reported as “longer”. In addition, in experiment [1], the “Anti-VPB activity at the end of the washout period” value (from here on “Anti-VPB activity at the end”) is “completely inactive”. Besides, in the experiment with anesthetized rats, the PR interval entry was “shorter”, the QRS interval result was “longer” and the QT interval result is “no change”.

Take `CC[C@@H](C)OC(=O)Cc1oc2ccccc2c1C(=O)c1cc(I)c(OCCN(CC)CC)c(I)c1` [Compound R-2042, (R)-sec-Butyl 2-[3-(3,5-diiodo-4-(2-diethylaminoethyloxy)benzoyl)]benzofuraneacetate]: in experiment [1] (anesthetized rats), the “Heart rate (beats/minute)” value is “lower”, the Inhibition of tachycardia entry is listed as “longer”, the “Number of VPB” value was “lower” and the “Inhibition of VPB” value is “longer”. In experiment [1], the “Anti-VPB activity at the end” value is “completely inactive”. Besides, in the experiment with anesthetized rats, the PR interval entry is “shorter”, the QRS interval entry is “no change” and the QT interval result is reported as “no change”.

Consider `CC[C@H](C)OC(=O)Cc1oc2ccccc2c1C(=O)c1cc(I)c(OCCN(CC)CC)c(I)c1` [R,S-2042], for which the “Protection against adrenaline-induced tachycardia (heart rate), potency and duration” value (from here on “Protection”) in experiment [1] is “the least potent and shortest acting”. Moreover, in experiment [1] (racemate vs enantiomers, anesthetized rats), the “Anti-VPB activity relative to the other forms” value is reported as “even less active than either the R- or the S-isomer”.

For `CC[C@H](C)OC(=O)Cc1oc2ccccc2c1C(=O)c1cc(I)c(OCCN(CC)CC)c(I)c1` [Compound S-2042, (S)-sec-Butyl 2-[3-(3,5-diiodo-4-(2-diethylaminoethyloxy)benzoyl)]benzofurane-acetate], in experiment [1], the “Protection” value was “more potent and longer acting then R-2042”; the “Anti-VPB activity at the end” value is listed as “still retained part of its activity”; the “Inhibition of formation of ventricular premature beats during drug administration” value is listed as “totally inhibited the formation of ventricular premature beats”. In experiment [1] (anesthetized rats), the “Heart rate (beats/minute)” value was “lower”, the Inhibition of tachycardia result is “longer”, the “Number of VPB” value was “lower” and the “Inhibition of VPB” value is given as “longer”. Moreover, in the experiment on anesthetized rats, the “Effect on PR segment of EKG (Class-IV activity), potency” value was “much more potent than R-2042 and the racemate R,S-2042”; the “Effect on QT segment of EKG (Class-III properties), potency and duration” value was “the most potent and the longest acting”; the PR interval result is recorded as “longer”; the QRS interval result is “longer”. In the experiment on anesthetized rats, the QT interval entry is given as “longer”.

For the compound `CCN(CC)CCOc1c(I)cc(C(=O)c2c(CC(=O)O[C@H](C)C(C)C)oc3ccccc23)cc1I` [Compound R-2055, (R)-(3-Methyl)-2butyl2-[3-(3,5-diiodo-4-(2-diethylaminoethyloxy)benzoyl)]benzofuraneacetate], in experiment [1], the “Protection” value is “longer-lasting effect than S-2055”; the “Anti-VPB activity at the end” value is listed as “still retained part of its activity”; the “Inhibition of formation of ventricular premature beats during drug administration” value was “totally inhibited the formation of ventricular premature beats”. In experiment [1] (anesthetized rats), the “Heart rate (beats/minute)” value is reported as “lower”, the Inhibition of tachycardia result was “longer”, the “Number of VPB” value is listed as “lower” and the “Inhibition of VPB” value is “longer”. For the same compound, in the experiment with anesthetized rats, the PR interval entry was “shorter”, the QRS interval result is “longer” and the QT interval result is given as “no change”.

For `CC[C@H](C)OC(=O)Cc1oc2ccccc2c1C(=O)c1cc(I)c(OCCN(CC)CC)c(I)c1` [ATI-2042], the “Protection” value in experiment [1] is “very good protection against this tachyarrhythmia”.

As for `CCN(CC)CCOc1c(I)cc(C(=O)c2c(CC(=O)OC(C)C(C)C)oc3ccccc23)cc1I` (stereo not shown) [ATI-2055], the “Protection” value in experiment [1] was “inhibits the tachycardia”.
